Publication PMC5826244 (OncoTargets and therapy, 2018)

Experiments:
[1] = system: LH-RH-I receptors expressed in rat pituitaries; conditions: cited from earlier work
[2] = target: T1, LH-RH-I receptors, membranes of human UM models (Homo sapiens, UniProt P30968); test: Radioligand binding / ligand competition, human UM samples; conditions: increasing concentrations 10^−12–10^−6 M; data not shown
T1 sequence (P30968 1-328): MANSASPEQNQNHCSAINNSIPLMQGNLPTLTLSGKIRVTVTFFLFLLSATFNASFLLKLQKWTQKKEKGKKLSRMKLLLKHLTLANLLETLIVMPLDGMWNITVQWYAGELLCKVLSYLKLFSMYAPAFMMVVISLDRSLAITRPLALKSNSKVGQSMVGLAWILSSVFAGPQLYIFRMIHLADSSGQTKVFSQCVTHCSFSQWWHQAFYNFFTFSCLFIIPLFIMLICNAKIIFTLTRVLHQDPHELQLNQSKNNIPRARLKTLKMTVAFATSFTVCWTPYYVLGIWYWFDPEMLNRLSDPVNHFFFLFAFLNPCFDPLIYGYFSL

Row | displacement of radiolabeled [D-Trp6]LH-RH binding [2] | Substance | binding affinity to LH-RH-I receptors [1]
1 |  | [^125I][D-Trp[6]]LH-RH | high affinity binding
2 | completely displaced | buserelin | 
